Measured values taken from patent US12605358B2, “Composition for preventing or treating nervous system diseases comprising compound that inhibits mTOR signaling pathway as active ingredient” (ALIAD BIOPHARMA, priority 2021, dated 2026).

Assays:
Format in all cases: in vivo
[1] = tested on: 5xFAD transgenic mice; test: Morris water maze test; conditions: 5, 10 and 20 mg/kg groups; similar to the normal group
Experimental: 5xFAD animals were administered with HN-1703 at three doses for 14 days to male heterozygotes aged 6 months (all born within 3 days). The behaviors of mice were measured in a dark cycle in which the mice were active while alternating light and dark in a 12-hour cycle in a breeding room chamber, and the mice were freely accessible to food and water and bred in compliance with experimental animal ethical guidelines of Kyung Hee University. […] Behavioral measures were measured in Y-maze, Morris Water Maze, and Passive Avoidance test for 18 days in sequence.
A Morris water maze test designed by Richard Morris to test spatial memory was performed on a round and rust-free pool with a white inner-surface (diameter 120 cm; height 60 cm). […] On the first day, the mice were trained in free swimming for 1 minute without a platform foothold, and from the second day, while the mice were trained for 1 minute to find the platform using a spatial clue above the water tank by dissolving dye in water so as not to see the foothold, 6 mice or more were set to a group and put into a quadrant once after taking a sufficient rest, and measured by a video camera. […] The captured video pictures were analyzed with a video tracking system (Ethovision water maze program, Noldus Information Technology, Wageningen, Netherlands). […]

[2] = tested on: 5xFAD transgenic mice; test: Neuroinflammation, Iba-1 staining of brain slices; conditions: hippocampal dentate gyrus; compared to a 5xFAD-DMSO control group; FIG. 11
Experimental: (§1) 5xFAD animals were administered with HN-1703 at three doses for 14 days to male heterozygotes aged 6 months (all born within 3 days). The behaviors of mice were measured in a dark cycle in which the mice were active while alternating light and dark in a 12-hour cycle in a breeding room chamber, and the mice were freely accessible to food and water and bred in compliance with experimental animal ethical guidelines of Kyung Hee University. In each group, the HN-1703 was intraperitoneally injected at the same time once a day in a volume of 100 μl to 12 mice in a normal group (wild type littermate), 9 5xFAD mice in a vehicle (DMSO administration), 8 5xFAD mice in a 5 mg/kg administered group, 9 5xFAD mice in a 10 mg/kg administered group, and 9 5xFAD mice in a 20 mg/kg administered group. […] In a behavioral measurement room, humidity (40 to 60%) and temperature (22 to 26° C.) were maintained, and reflected light was maintained to avoid sound and light effects. Behavioral measures were measured in Y-maze, Morris Water Maze, and Passive Avoidance test for 18 days in sequence.
A brain slice immunostaining method was modified and used as described in Heo H et al. (J Ethnopharmacol, 2009). Mice were transcardially perfused with 4% PFA. […]

[3] = tested on: 5xFAD transgenic mice; test: Autophagy indicators in brain (LC3/GFAP and LC3/MAP2 staining, LC3 immunoblot)
Experimental: as §1
A brain slice immunostaining method was modified and used as described in Heo H et al. (J Ethnopharmacol, 2009). Mice were transcardially perfused with 4% PFA. After being immersed and fixed in 4% PFA for 4 hours, the brain tissue was unfrozen in 30% sucrose, frozen in an optimal cutting temperature (OCT) mixture, and stored at −80° C. Brain tissue slices were sectioned in a coronal direction at a thickness of 35 μm. The brain tissue slices were immersed in a storage solution (30% glycerol, 30% ethylene glycol, PBS) and stored at 4° C. The stored brain slices were permeabilized in 0.5% Triton X-100 for 20 minutes and shaken in 2 N HCl for 30 minutes at 37° C. Then, the brain slices were blocked in a free-floating state for 2 hours in 15% standard serum, 3% bovine serum albumin (BSA, bio-WORLD, Dublin, OH, USA) and 0.1% Triton X-100. The slices were shaken with a first antibody for 16 hours at 4° C. Thereafter, a second antibody complementary to the first antibody was attached at room temperature (22±1° C.) for 45 minutes. Then, the nuclei were washed with physiological saline (PBS) containing 1 μg/ml PI (propidiumiodide, Sigma) or DAPI (1:4000), and then placed on a slide glass and sealed using an aqueous mount, and observed under a confocal scanning microscope for tissue observation (LSM 810 Carl Zeiss, Oberkochen, Germany).
The first antibody used antibodies such as LC3-II (MBL, PM036), MAP2 (sigma, m4403) [for LC3/MAP2 double staining], 6E10 (biolegend, 803001) [for LC3/6E10; ICC double staining], GFAP (abcam, ab53554) [for LC3/GFAP double staining], Iba-1 (wako, 011-27991) [for LC3/IBA1 double staining], Iba-1 (Wako, 019-19741) [for ThioS/Iba1/PI triple staining], Sox2 (R&D system, MAB2018) [for SOX2/DCX/NeuN triple staining], DCX (Santa Cruz, sc8066) [for SOX2/DCX/NeuN triple staining], AT8 (Invitrogen, MN1020) [for AT8/MAP2 double staining], MAP2 (abcam, ab32454) [for AT8/MAP2 double staining], NeuN (Millipore, MAB377B), Tuj1 (Sigma, T8660), Nestin (Millipore, MAB353), GFAP (Chemicon), and the like, and the second antibody used Alexa 488, Cy3, Alexa 488 (Invitrogen, A21202), Cy3 (Jackson lab, 715-165-151), and Alexa 488 (Jackson lab, 711-546-152).
When PS1 was KO, lysosome acidification was weakened and autophagy was inhibited (Lee et al. (2010) Cell 141: 1146-1158), and in 5xFAD mice with mutations in PS1, the generation of autophagy was somewhat attenuated and may be activated in the presence of endogenous WT PS1. In other words, there were example in which cellular conditions that inhibit mTOR, such as lack of amino acids, or suppression of inflammation activated autophagy, and treatment with a cAMP or β-adrenergic agonist restored lysosomal acidification in PS1 mutant cells (Coffey et al. (2014) Neuroscience 263: 111-124). […]

## COc1cc(OC)c2c(=O)c3cc4c(cc3oc2c1)OCO4 [HN-1703, 7,9-dimethoxy-10H-[1,3]dioxolo[4,5-b]xanthen-10-one]
[1]
  water maze latency time after 4 days of training: about 35 seconds
[2]
  Iba-1 staining (activated microglia): significantly reduced
[3]; 5 mg/kg to 10 mg/kg, FIG. 12
  LC3-II staining: stained at the level of a WT normal group
[3]; 20 mg/kg, FIG. 12
  LC3-II increase compared to the 5xFAD-DMSO control group: 2.5 times
  LC3-II increase compared to the WT normal group: 1.4 times
[3]; 20 mg/kg, FIG. 13
  LC3-II staining in the axon of the hippocampal pyramidal neuron: recovered to the level of the WT normal group
[3]; FIG. 14
  autophagic vacuoles near the nuclei of large neurons in the subgranular cell layer of the hippocampus: significantly increased
[3]; FIG. 15
  ratio of the autophagy activation marker LC3-II/LC3-I (brain immunoblot): increased
[3]; hippocampal dentate gyrus, compared to a 5xFAD-DMSO control group, FIG. 12
  LC3-II staining: increased in a dose-dependent manner
[3]; increased in 5xFAD-DMSO vs WT, FIG. 12
  astrocytes stained with the GFAP antibody: decreased to a normal level
